Source: patent US12104178B2, “DHFR tunable protein regulation” (Obsidian Therapeutics, Inc., priority 2017, dated 2024)

Experiments:
HCT-116 = assay: DD regulated IL2, IL2 ELISA with Shield-1 dose; type: cell-based, human; conditions: read-out: EC50 of Shield-1, IL2 ELISA (FIG. 58); HCT-116 transduced with OT-IL2-001
From the text: OT-IL2-001 (FKBP) was transduced into human colorectal carcinoma line, HCT-116.

human donor T cells [1] = assay: Shield-1 concentration and time dependent IL12 p40 in human T cells (Tables 94-96); type: cell-based; set-up: IL12 levels in T cells (IL12 p40, MSD): unit not given beside the values; conditions: for EC50: IL12 p40 from OT-IL12-026 T cells; for IL12 levels in T cells (IL12 p40, MSD): OT-IL12-026 T cells, 24 hours
Protocol: On day 1, cells were transduced with lentivirus for construct OT-IL12-026 at MOIs of 40, 13.3 or 4.4. […] Cells were then plated at 100,000 per well on U-bottom 96-well plate. On day 14, cells were treated for 24 hours with varying concentrations of Shield-1 or vehicle control. On day 15, the supernatant was harvested and IL12 p40 levels were measured by MSD assay. In the Table 94, MOI stands for multiplicity of infection.
A time course experiment was also performed using Shield-1 at a dose of 1 μM. T cells transduced with OT-IL12-020, OT-IL12-026 or empty vector were treated with Shield-1 or vehicle control for 4, 8, 16 and 24 hours. IL12 p40 levels were measured using MSD assay. The stabilization ratio was measured as the ratio of expression of IL12 in the presence of the stimulus to the expression in the absence of the stimulus.

human donor T cells [2] = assay: as above; type: cell-based; conditions: 24 h

`CC[C@H](C(=O)N1CCCC[C@H]1C(=O)O[C@H](CCc1ccc(OC)c(OC)c1)c1cccc(OCCN2CCOCC2)c1)c1cc(OC)c(OC)c(OC)c1` [Shield-1] showed an EC50 (HCT-116) of 50 nM, an EC50 (human donor T cells [1]; MOI 4.4) of 84 nM and an EC50 (human donor T cells [1]; MOI 13.3) of 94 nM. The EC50 (human donor T cells [1]; MOI 40) was 130 nM, the “IL12 levels in T cells (IL12 p40, MSD)” value (human donor T cells [1]; MOI = 4.4, Shield-1 0.1 nM) was 49.44 and the “IL12 levels in T cells (IL12 p40, MSD)” value (human donor T cells [1]; MOI = 4.4, Shield-1 1 nM) was 50.44. For the same compound, the “IL12 levels in T cells (IL12 p40, MSD)” value (human donor T cells [1]; MOI = 4.4, Shield-1 5 nM) was 50.44, the “IL12 levels in T cells (IL12 p40, MSD)” value (human donor T cells [1]; MOI = 4.4, Shield-1 10 nM) was 178.18 and the “IL12 levels in T cells (IL12 p40, MSD)” value (human donor T cells [1]; MOI = 4.4, Shield-1 50 nM) was 357.11. The “IL12 levels in T cells (IL12 p40, MSD)” value (human donor T cells [1]; MOI = 4.4, Shield-1 100 nM) was 710.56, the “IL12 levels in T cells (IL12 p40, MSD)” value (human donor T cells [1]; MOI = 4.4, Shield-1 500 nM) was 1284.95 and the “IL12 levels in T cells (IL12 p40, MSD)” value (human donor T cells [1]; MOI = 4.4, Shield-1 1000 nM) was 1152.28. For the same compound, the “IL12 levels in T cells (IL12 p40, MSD)” value (human donor T cells [1]; MOI = 4.4, Shield-1 2000 nM) was 1071.54, the “IL12 levels in T cells (IL12 p40, MSD)” value (human donor T cells [1]; MOI = 13.3, Shield-1 0.1 nM) was 48.10 and the “IL12 levels in T cells (IL12 p40, MSD)” value (human donor T cells [1]; MOI = 13.3, Shield-1 1 nM) was 48.61. For the same compound, the “IL12 levels in T cells (IL12 p40, MSD)” value (human donor T cells [1]; MOI = 13.3, Shield-1 5 nM) was 49.54, the “IL12 levels in T cells (IL12 p40, MSD)” value (human donor T cells [1]; MOI = 13.3, Shield-1 10 nM) was 220.08 and the “IL12 levels in T cells (IL12 p40, MSD)” value (human donor T cells [1]; MOI = 13.3, Shield-1 50 nM) was 420.72. The “IL12 levels in T cells (IL12 p40, MSD)” value (human donor T cells [1]; MOI = 13.3, Shield-1 100 nM) was 972.56, the “IL12 levels in T cells (IL12 p40, MSD)” value (human donor T cells [1]; MOI = 13.3, Shield-1 500 nM) was 1307.70 and the “IL12 levels in T cells (IL12 p40, MSD)” value (human donor T cells [1]; MOI = 13.3, Shield-1 1000 nM) was 1559.43. For the same compound, the “IL12 levels in T cells (IL12 p40, MSD)” value (human donor T cells [1]; MOI = 13.3, Shield-1 2000 nM) was 1577.99, the “IL12 levels in T cells (IL12 p40, MSD)” value (human donor T cells [1]; MOI = 40, Shield-1 0.1 nM) was 88.30 and the “IL12 levels in T cells (IL12 p40, MSD)” value (human donor T cells [1]; MOI = 40, Shield-1 1 nM) was 80.07. For the same compound, the “IL12 levels in T cells (IL12 p40, MSD)” value (human donor T cells [1]; MOI = 40, Shield-1 5 nM) was 88.83, the “IL12 levels in T cells (IL12 p40, MSD)” value (human donor T cells [1]; MOI = 40, Shield-1 10 nM) was 374.90 and the “IL12 levels in T cells (IL12 p40, MSD)” value (human donor T cells [1]; MOI = 40, Shield-1 50 nM) was 608.85. For the same compound, the “IL12 levels in T cells (IL12 p40, MSD)” value (human donor T cells [1]; MOI = 40, Shield-1 100 nM) was 1293.01, the “IL12 levels in T cells (IL12 p40, MSD)” value (human donor T cells [1]; MOI = 40, Shield-1 500 nM) was 1861.36 and the “IL12 levels in T cells (IL12 p40, MSD)” value (human donor T cells [1]; MOI = 40, Shield-1 1000 nM) was 2346.15. The “IL12 levels in T cells (IL12 p40, MSD)” value (human donor T cells [1]; MOI = 40, Shield-1 2000 nM) was 2330.88 and the “Shield-1 concentration at which viability was reduced” value (human donor T cells [2]) was “greater than 5 μM”.
